Columns and labels:
[1] = system: RKO p27 uninduced (proliferating) colon adenocarcinoma cells; assay: Alamar Blue cell viability assay, RKO p27 uninduced (proliferating); format: cell-based; details: Homo sapiens, RKOp27, Table B1, anti-proliferative/cytotoxic activity, 72 hours, read-out: −log EC50 RKO p27 uninduced (proliferating) (converted)
Experimental: The anti-proliferative/cytotoxic activity of the compounds described herein can be tested on subclones of RKO human colon adenocarcinoma cells (Schmidt et al., Oncogene 19, 2423-2429; 2000) using the Alamar Blue cell viability assay (described in O'Brien et al. Eur J Biochem 267, 5421-5426, 2000). The compounds are dissolved as 10 mM solutions in DMSO and subsequently diluted in semi-logarithmic steps. DMSO dilutions are further diluted 1:100 into Dulbecco's modified Eagle's medium (DMEM) containing 10% fetal calf serum to a final concentration twice as much as the final concentration in the test. RKO subclones are seeded into 96 well flat bottom plates at a density of 4000 cells per well in a volume of 50 μl per well. 24 hours after seeding the 50 μl each of the compound dilutions in DMEM medium are added into each well of the 96 well plate. Each compound dilution is tested as triplicates. Wells containing untreated control cells are filled with 50 μl DMEM medium containing 1% DMSO. The cells are then incubated with the substances for 72 hours at 37° C. in a humidified atmosphere containing 5% carbon dioxide. To determine the viability of the cells, 10 μl of an Alamar Blue solution (Biosource) are added and the fluorescence is measured at an extinction of 544 nm and an emission of 590 nm. For the calculation of the cell viability the emission value from untreated cells is set as 100% viability and the emission rates of treated cells are set in relation to the values of untreated cells. Viabilities are expressed as % values. The Graphpad Prism program is used for the calculation of EC50 values for anti-proliferative/cytotoxic activity out of the obtained dose-response curves.
(§1) To determine the cell cycle specific mode of action, subclones of RKO colon adenocarcinoma cells (RKOp21 or RKOp27 as described by Schmidt et al. in Oncogene 19, 2423-2429; 2000) are seeded into 96 well flat bottom plates at a density of 16000 cells per well in a volume of 50 μl per well in DMEM growth medium with 10% FCS containing 10 μM Ponasterone A. 24 hours after seeding the 50 μl each of the compound dilutions in DMEM medium are added into each well of the 96-well plate. Each compound dilution is tested as triplicates. Wells containing untreated control cells are filled with 50 μl DMEM medium containing 1% DMSO. The cells are then incubated with the substances for 72 hours at 37° C. in a humidified atmosphere containing 5% carbon dioxide. To determine the viability of the cells, 10 μl of an Alamar Blue solution (Biosource) are added and the fluorescence is measured at an extinction of 544 nm and an emission of 590 nm. For the calculation of the cell viability the emission value from untreated cells is set as 100% viability and the emission rates of treated cells are set in relation to the values of untreated cells. Viabilities are expressed as % values. The Graphpad Prism program (GraphPad Software, Inc) is used for the calculation of EC50 values out of the obtained dose-response curves. Viability is compared of proliferating cells grown in the absence of the inducer Ponasterone A, versus viability of cells arrested by the expression of ectopic p27Kip1 induced by Ponasterone A.
(§2) Representative values for anti-proliferation/cytotoxicity [measured as −log EC50 (mol/l)] determined in the aforementioned assays follow from the following tables B1, B2 and B3, in which the numbers of the compounds correspond to the numbers of the examples.

[2] = system: RKO p27 induced (arrested) colon adenocarcinoma cells; assay: Alamar Blue cell viability assay, RKO p27 induced by Ponasterone A (arrested); format: cell-based; details: Homo sapiens, RKOp27, Table B1, cells arrested by Ponasterone A-induced p27Kip1, 72 hours, read-out: −log EC50 RKO p27 induced (arrested) (converted)
Experimental: as §1, §2

Structure (SMILES) | EC50 [1] [nM] | EC50 [2] [µM]
CCNCCN1C(=O)N2[C@H](c3cccc(O)c3)c3[nH]c4ccc(Cl)cc4c3C[C@@]2(C)C1=O (racemic) [Example 37, (3aSR,10RS)-6-Chloro-2-(2-ethylamino-ethyl)-10-(3-hydroxy-phenyl)-3a-methyl-3a,4,9,10-tetrahydro-2,9,10a-triaza-cyclopenta[b]fluorene-1,3-dione] | ≤ 39.8 | ≥ 0.316
CN(C)CCCN1C(=O)N2[C@H](c3cccc(O)c3)c3[nH]c4ccc(Cl)cc4c3C[C@@]2(C)C1=O (racemic) [Example 16, (3aSR,10RS)-6-Chloro-2-(3-dimethylamino-propyl)-10-(3-hydroxy-phenyl)-3a-methyl-3a,4,9,10-tetrahydro-2,9,10a-triaza-cyclopenta[b]fluorene-1,3-dione] | ≤ 39.8 | ≥ 3.16
COc1ccc2[nH]c3c(c2c1)C[C@@]1(C)C(=O)N(CCCCN(C)C)C(=O)N1[C@@H]3c1cccc(O)c1 (racemic) [Example 14, (3aSR,10RS)-2-(4-Dimethylamino-butyl)-10-(3-hydroxy-phenyl)-6-methoxy-3a-methyl-3a,4,9,10-tetrahydro-2,9,10a-triaza-cyclopenta[b]fluorene-1,3-dione] | ≤ 39.8 | ≥ 3.16
COc1ccc2[nH]c3c(c2c1)C[C@@]1(C)C(=O)N(CCN2CCC2)C(=O)N1[C@@H]3c1cccc(O)c1 (racemic) [Example 33, (3aSR,10RS)-2-(2-Azetidin-1-yl-ethyl)-10-(3-hydroxy-phenyl)-6-methoxy-3a-methyl-3a,4,9,10-tetrahydro-2,9,10a-triaza-cyclopenta[b]fluorene-1,3-dione] | ≤ 39.8 | ≥ 3.16
C[C@@]12Cc3c([nH]c4ccc(OC(F)F)cc34)[C@@H](c3cccc(O)c3)N1C(=O)N(CCN1CCC1)C2=O (racemic) [Example 44, (3aSR,10RS)-2-(2-Azetidin-1-yl-ethyl)-6-(1,1-difluoro-methoxy)-10-(3-hydroxy-phenyl)-3a-methyl-3a,4,9,10-tetrahydro-2,9,10a-triaza-cyclopenta[b]fluorene-1,3-dione] | ≤ 39.8 | ≥ 3.16
COc1ccc2[nH]c3c(c2c1)C[C@@]1(C)C(=O)N(CCNC2CCC2)C(=O)N1[C@@H]3c1cccc(O)c1 (racemic) [Example 50, (3aSR,10RS)-2-(2-Cyclobutylamino-ethyl)-10-(3-hydroxy-phenyl)-6-methoxy-3a-methyl-3a,4,9,10-tetrahydro-2,9,10a-triaza-cyclopenta[b]fluorene-1,3-dione] | ≤ 39.8 | ≥ 3.16
CCOc1ccc2[nH]c3c(c2c1)C[C@@]1(C)C(=O)N(CCN2CCC2)C(=O)N1[C@@H]3c1cccc(O)c1 (racemic) [Example 46, (3aSR,10RS)-2-(2-Azetidin-1-yl-ethyl)-6-ethoxy-10-(3-hydroxy-phenyl)-3a-methyl-3a,4,9,10-tetrahydro-2,9,10a-triaza-cyclopenta[b]fluorene-1,3-dione] | ≤ 39.8 | ≥ 3.16
CNCCN1C(=O)N2[C@H](c3cccc(O)c3)c3[nH]c4ccc(Cl)cc4c3C[C@@]2(C)C1=O (racemic) [Example 28, (3aSR,10RS)-6-Chloro-10-(3-hydroxy-phenyl)-3a-methyl-2-(2-methylamino-ethyl)-3a,4,9,10-tetrahydro-2,9,10a-triaza-cyclopenta[b]fluorene-1,3-dione] | ≤ 39.8 | ≥ 3.16
CC(C)NCCN1C(=O)N2[C@H](c3cccc(O)c3)c3[nH]c4ccc(Cl)cc4c3C[C@@]2(C)C1=O (racemic) [Example 38, (3aSR,10RS)-6-Chloro-10-(3-hydroxy-phenyl)-2-(2-isopropylamino-ethyl)-3a-methyl-3a,4,9,10-tetrahydro-2,9,10a-triaza-cyclopenta[b]fluorene-1,3-dione] | ≤ 39.8 | ≥ 0.316
C[C@@]12Cc3c([nH]c4ccc(Cl)cc34)[C@@H](c3cccc(O)c3)N1C(=O)N(CCn1ccnc1)C2=O (racemic) [Example 31, (3aSR,10RS)-6-Chloro-10-(3-hydroxy-phenyl)-2-(2-imidazol-1-yl-ethyl)-3a-methyl-3a,4,9,10-tetrahydro-2,9,10a-triaza-cyclopenta[b]fluorene-1,3-dione] | 39.8 to 251 | ≥ 3.16
CNCCN1C(=O)N2[C@H](c3cccc(O)c3)c3[nH]c4ccc(OC)cc4c3C[C@@]2(C)C1=O (racemic) [Example 27, (3aSR,10RS)-10-(3-Hydroxy-phenyl)-6-methoxy-3a-methyl-2-(2-methylamino-ethyl)-3a,4,9,10-tetrahydro-2,9,10a-triaza-cyclopenta[b]fluorene-1,3-dione] | ≤ 39.8 | ≥ 3.16
CN(C)CCN1C(=O)N2[C@H](c3cccc(O)c3)c3[nH]c4ccc(OC(F)F)cc4c3C[C@@]2(C)C1=O (racemic) [Example 43, (3aSR,10RS)-6-(1,1-Difluoro-methoxy)-2-(2-dimethylamino-ethyl)-10-(3-hydroxy-phenyl)-3a-methyl-3a,4,9,10-tetrahydro-2,9,10a-triaza-cyclopenta[b]fluorene-1,3-dione] | ≤ 39.8 | ≥ 3.16
CCOc1ccc2[nH]c3c(c2c1)C[C@@]1(C)C(=O)N(CCN(C)C)C(=O)N1[C@@H]3c1cccc(O)c1 (racemic) [Example 23, (3aSR,10RS)-2-(2-Dimethylamino-ethyl)-6-ethoxy-10-(3-hydroxy-phenyl)-3a-methyl-3a,4,9,10-tetrahydro-2,9,10a-triaza-cyclopenta[b]fluorene-1,3-dione] | ≤ 39.8 | ≥ 3.16
C[C@@]12Cc3c([nH]c4ccc(Cl)cc34)[C@@H](c3cccc(O)c3)N1C(=O)N(CCN1CCC1)C2=O (racemic) [Example 29, (3aSR,10RS)-2-(2-Azetidin-1-yl-ethyl)-6-chloro-10-(3-hydroxy-phenyl)-3a-methyl-3a,4,9,10-tetrahydro-2,9,10a-triaza-cyclopenta[b]fluorene-1,3-dione] | ≤ 39.8 | ≥ 3.16
COc1ccc2[nH]c3c(c2c1)C[C@@]1(C)C(=O)N(CCN2CCC(F)(F)C2)C(=O)N1[C@@H]3c1cccc(O)c1 (racemic) [Example 34, (3aSR,10RS)-2-[2-(3,3-Difluoro-pyrrolidin-1-yl)-ethyl]-10-(3-hydroxy-phenyl)-6-methoxy-3a-methyl-3a,4,9,10-tetrahydro-2,9,10a-triaza-cyclopenta[b]fluorene-1,3-dione] | 39.8 to 251 | ≥ 3.16
C[C@@]12Cc3c([nH]c4ccc(Cl)cc34)[C@@H](c3cccc(O)c3)N1C(=O)N(CCN1CCCC1)C2=O (racemic) [Example 17, (3aSR,10RS)-6-Chloro-10-(3-hydroxy-phenyl)-3a-methyl-2-(2-pyrrolidin-1-yl-ethyl)-3a,4,9,10-tetrahydro-2,9,10a-triaza-cyclopenta[b]fluorene-1,3-dione] | ≤ 39.8 | ≥ 3.16
C[C@@]12Cc3c([nH]c4ccc(Cl)cc34)[C@@H](c3cccc(O)c3)N1C(=O)N(CCN)C2=O (racemic) [Example 30, (3aSR,10RS)-2-(2-Amino-ethyl)-6-chloro-10-(3-hydroxy-phenyl)-3a-methyl-3a,4,9,10-tetrahydro-2,9,10a-triaza-cyclopenta[b]fluorene-1,3-dione] | ≤ 39.8 | ≥ 3.16
COc1ccc2[nH]c3c(c2c1)C[C@@]1(C)C(=O)N(CCNCC2CC2)C(=O)N1[C@@H]3c1cccc(O)c1 (racemic) [Example 48, (3aSR,10RS)-2-[2-(Cyclopropylmethyl-amino)-ethyl]-10-(3-hydroxy-phenyl)-6-methoxy-3a-methyl-3a,4,9,10-tetrahydro-2,9,10a-triaza-cyclopenta[b]fluorene-1,3-dione] | ≤ 39.8 | ≥ 3.16

From patent publication US8530493B2, “Indolopyridines as Eg5 kinesin modulators” (4SC AG, priority 2006, dated 2013)
